{"source": "patent EP4763845A1", "about": "“CYANO AROMATIC RING DERIVATIVE AND PHARMACEUTICAL USE THEREOF” (Haisco Pharmaceutical Group Co., Ltd., priority 2023, dated 2025)", "key": {"[1]": {"tested_on": "Human CD34+ Hematopoietic stem cells", "assay": "Human CD34+ hematopoietic stem cell proliferation inhibition experiment", "format": "cell-based", "details": "168 h, inhibitory activity against the proliferation of CD34+ hematopoietic stem cells, 7 days", "method": "Human CD34+ Hematopoietic stem cells (TPCS, Cat.hmPB34-P-2CW) are CD34-positive stem cells obtained from human PBMCs through immunomagnetic bead sorting. The culture conditions are as follows: DPBS (Gibco, Cat.14190-144) +StemSpan SFEM II ([…], Cat.9655) +1X StemSpan CD34+ Expansion Supplement ([…], Cat.2691). First, 40 nL of DMSO, the positive reference compound Talazoparib, or the test compounds were respectively added to a 384-well plate (Corning, Cat. 3764). Then, a cell suspension was added at 400 cells per well in 40 µL of medium, resulting in final concentrations of 0.1% DMSO, 3 µM Talazoparib, or various concentrations of the compounds in each well. The plate was centrifuged at room temperature at 1000 rpm for 1 minute, followed by incubation for 7 days in a 37°C, 5% CO2 incubator. Following incubation, 20 µL of CellTiter-Glo Reagent (Promega, Cat. G7573) was directly added to each well, and the plate was centrifuged at room temperature at 1000 rpm for 1 minute, followed by incubation for 20 minutes in the dark. Following incubation, the chemiluminescent signal (CFU) was read and recorded using an Envision multimode microplate reader (PerkinElmer, Cat. 2104). The cell proliferation inhibition rate at various compound concentrations was calculated according to Equation (3), where CFUhigh control represents the average signal value of the DMSO group, CFUlow control represents the average signal value of the Talazoparib group, and CFUcompound represents the average signal value of the compound-treated group. The processed data obtained from Equation (3) were analysed using XLfit or GraphPad Prism software, and a four-parameter curve fitting model was applied to calculate the compound concentration corresponding to a 50% inhibition rate, i.e., the IC50 value. Inhibition% = (CFUhigh control−CFUcompound)/(CFUhigh control−CFUlow control) × 100% [formula]"}, "AR protein": {"molecular_target": "T1, AR protein (Homo sapiens, UniProt P10275)", "T1 construct": "VCap is a human prostate cancer cell line purchased from ATCC; host or cells: VCaP human prostate cancer cells", "T1 sequence (P10275 1-920)": "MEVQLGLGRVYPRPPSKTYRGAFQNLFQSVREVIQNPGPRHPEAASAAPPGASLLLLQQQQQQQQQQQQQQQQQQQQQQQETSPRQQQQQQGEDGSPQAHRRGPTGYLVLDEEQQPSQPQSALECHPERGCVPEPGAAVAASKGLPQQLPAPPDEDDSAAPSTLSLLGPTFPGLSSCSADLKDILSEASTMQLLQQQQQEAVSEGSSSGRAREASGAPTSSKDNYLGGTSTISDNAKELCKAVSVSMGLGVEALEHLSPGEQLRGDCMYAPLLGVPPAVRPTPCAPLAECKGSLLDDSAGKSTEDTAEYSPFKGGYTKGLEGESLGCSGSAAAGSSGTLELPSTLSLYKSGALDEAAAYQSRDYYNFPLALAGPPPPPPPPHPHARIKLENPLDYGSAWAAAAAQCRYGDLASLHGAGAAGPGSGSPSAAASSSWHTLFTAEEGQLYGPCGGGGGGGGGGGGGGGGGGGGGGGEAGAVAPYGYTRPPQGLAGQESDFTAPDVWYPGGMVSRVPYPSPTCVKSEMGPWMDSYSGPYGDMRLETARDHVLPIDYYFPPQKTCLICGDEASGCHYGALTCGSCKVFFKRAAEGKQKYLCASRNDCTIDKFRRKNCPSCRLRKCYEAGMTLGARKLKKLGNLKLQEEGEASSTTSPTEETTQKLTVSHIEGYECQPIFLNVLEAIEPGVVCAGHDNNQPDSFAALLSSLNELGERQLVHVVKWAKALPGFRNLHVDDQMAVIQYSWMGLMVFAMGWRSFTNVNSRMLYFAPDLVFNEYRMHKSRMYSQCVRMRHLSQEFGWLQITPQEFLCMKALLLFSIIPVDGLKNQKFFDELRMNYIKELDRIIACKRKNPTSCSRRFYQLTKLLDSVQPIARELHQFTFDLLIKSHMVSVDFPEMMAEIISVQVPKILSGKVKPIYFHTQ", "assay": "Detection of AR degradation in VCaP cells (automated western blot)", "format": "cell-based", "details": "degradation of AR protein in VCaP cells, 24 hours incubation; read-out: DC50", "procedure,_shortened": "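VCaP cells (5 × 10^5/well) were treated with compounds at various concentrations for 24 h at 37°C. Lysate AR level was quantified by automated capillary western blot, normalised to β-actin and expressed relative to solvent control. DC50 came from four-parameter nonlinear regression; degradation rate = 100 − AR%.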"}}}
{"compound": "CC1(C)[C@H](NC(=O)c2ccc(N3CCC(CN4CCN5c6cc(F)c(C7CCC(=O)NC7=O)cc6CC[C@H]5C4)CC3)cc2)C(C)(C)[C@H]1Oc1ccc(C#N)c2ncccc12", "note": "(some centres unmarked) [Compound 31]", "values": [{"measurement": "IC50", "setting": "[1]", "result": "> 10", "unit": "µM"}, {"measurement": "DC50", "setting": "AR protein", "result": "< 0.1", "unit": "µM"}]}
